Reference: paper PMC8766551, “Amino acid residue at position 188 determines the UV-sensitive bistable property of vertebrate non-visual opsin Opn5” (Communications Biology, 2022)
Where a chain is given by its changes, count along the chain named.

Key:
Assay type in all cases: binding
Xenopus tropicalis Opn5m [1] = target: T1, Xenopus tropicalis Opn5m (Xenopus tropicalis, UniProt A0A8J0QRX8, L208F); assay: absorption spectrum of purified reconstituted pigment, difference spectrum; conditions: covalent; 40 uM all-trans retinal added to collected cell membranes, dark versus yellow light (>500 nm), 0 °C, pH 6.5; spectral value, no affinity
T1 construct: gene opn5; 21 residues truncated from the C-terminus; expressed in HEK293S cells; purified in DDM on Rho1D4-agarose
T1 sequence (A0A8J0QRX8 1-322 L208F): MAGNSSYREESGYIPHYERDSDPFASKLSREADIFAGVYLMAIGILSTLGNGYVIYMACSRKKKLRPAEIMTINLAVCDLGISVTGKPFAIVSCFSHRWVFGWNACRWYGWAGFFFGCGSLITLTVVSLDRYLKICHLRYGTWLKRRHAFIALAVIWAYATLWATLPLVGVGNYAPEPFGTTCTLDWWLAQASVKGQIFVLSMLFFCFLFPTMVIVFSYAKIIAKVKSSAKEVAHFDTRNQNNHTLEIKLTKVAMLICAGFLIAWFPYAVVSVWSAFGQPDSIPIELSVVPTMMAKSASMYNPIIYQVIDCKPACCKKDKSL

Xenopus tropicalis Opn5m [2] = target: T2, Xenopus tropicalis Opn5m (Xenopus tropicalis, UniProt A0A8J0QRX8, T184N); assay: as above; conditions: covalent; all-trans retinal added, dark versus yellow light (>500 nm), 0 °C, pH 6.5; spectral value, no affinity
T2 construct: gene opn5; 21 residues truncated from the C-terminus; expressed in HEK293S cells; purified in DDM on Rho1D4-agarose
T2 sequence (A0A8J0QRX8 1-322 T184N): T1 sequence (A0A8J0QRX8 1-322 L208F) with T184N, F208L

Xenopus tropicalis Opn5m [3] = target: T3, Xenopus tropicalis Opn5m (Xenopus tropicalis, UniProt A0A8J0QRX8, T184M); assay: as above; conditions: covalent; all-trans retinal added, dark versus yellow light (>500 nm), 0 °C, pH 6.5; spectral value, no affinity
T3 construct: gene opn5; 21 residues truncated from the C-terminus; expressed in HEK293S cells; purified in DDM on Rho1D4-agarose
T3 sequence (A0A8J0QRX8 1-322 T184M): T1 sequence (A0A8J0QRX8 1-322 L208F) with T184M, F208L

Xenopus tropicalis Opn5m [4] = target: T4, Xenopus tropicalis Opn5m (Xenopus tropicalis, UniProt A0A8J0QRX8, T184S); assay: as above; conditions: covalent; all-trans retinal added, dark versus yellow light (>500 nm), 0 °C, pH 6.5; spectral value, no affinity
T4 construct: gene opn5; 21 residues truncated from the C-terminus; expressed in HEK293S cells; purified in DDM on Rho1D4-agarose
T4 sequence (A0A8J0QRX8 1-322 T184S): T1 sequence (A0A8J0QRX8 1-322 L208F) with T184S, F208L

Xenopus tropicalis Opn5m [5] = target: T5, Xenopus tropicalis Opn5m (Xenopus tropicalis, UniProt A0A8J0QRX8); assay: as above; conditions: covalent; all-trans retinal added, dark versus yellow light (>500 nm), 0 °C, pH 6.5; spectral value, no affinity
T5 construct: gene opn5; 21 residues truncated from the C-terminus; expressed in HEK293S cells; purified in DDM on Rho1D4-agarose
T5 sequence (A0A8J0QRX8 1-322): T1 sequence (A0A8J0QRX8 1-322 L208F) with F208L

Xenopus tropicalis Opn5m [6] = target: T6, Xenopus tropicalis Opn5m (Xenopus tropicalis, UniProt A0A8J0QRX8, T184A); assay: as above; conditions: covalent; all-trans retinal added, dark versus yellow light (>500 nm), 0 °C, pH 6.5; spectral value, no affinity
T6 construct: gene opn5; 21 residues truncated from the C-terminus; expressed in HEK293S cells; purified in DDM on Rho1D4-agarose
T6 sequence (A0A8J0QRX8 1-322 T184A): T1 sequence (A0A8J0QRX8 1-322 L208F) with T184A, F208L

Xenopus tropicalis Opn5m [7] = target: T7, Xenopus tropicalis Opn5m (Xenopus tropicalis, UniProt A0A8J0QRX8, T184Q); assay: as above; conditions: covalent; all-trans retinal added, dark versus yellow light (>500 nm), 0 °C, pH 6.5; spectral value, no affinity
T7 construct: gene opn5; 21 residues truncated from the C-terminus; expressed in HEK293S cells; purified in DDM on Rho1D4-agarose
T7 sequence (A0A8J0QRX8 1-322 T184Q): T1 sequence (A0A8J0QRX8 1-322 L208F) with T184Q, F208L

Xenopus tropicalis Opn5m [8] = target: T8, Xenopus tropicalis Opn5m (Xenopus tropicalis, UniProt A0A8J0QRX8, T184G); assay: as above; conditions: covalent; all-trans retinal added, dark versus yellow light (>500 nm), 0 °C, pH 6.5; spectral value, no affinity
T8 construct: gene opn5; 21 residues truncated from the C-terminus; expressed in HEK293S cells; purified in DDM on Rho1D4-agarose
T8 sequence (A0A8J0QRX8 1-322 T184G): T1 sequence (A0A8J0QRX8 1-322 L208F) with T184G, F208L

Xenopus tropicalis Opn5m [9] = target: T9, Xenopus tropicalis Opn5m (Xenopus tropicalis, UniProt A0A8J0QRX8, T184C); assay: as above; conditions: covalent; all-trans retinal added, dark versus yellow light (>500 nm), 0 °C, pH 6.5; spectral value, no affinity
T9 construct: gene opn5; 21 residues truncated from the C-terminus; expressed in HEK293S cells; purified in DDM on Rho1D4-agarose
T9 sequence (A0A8J0QRX8 1-322 T184C): T1 sequence (A0A8J0QRX8 1-322 L208F) with T184C, F208L

Xenopus tropicalis Opn5m [10] = target: T5, Xenopus tropicalis Opn5m; assay: reconstitution, purification, HPLC of retinal oximes; conditions: covalent; 40 uM 11-cis retinal added to collected cell membranes, 4 °C, 24 h, dark; pH 6.5; isomer composition, no affinity
Xenopus tropicalis Opn5m [11] = target: T10, Xenopus tropicalis Opn5m (Xenopus tropicalis, UniProt A0A8J0QRX8, W163F); assay: as above; conditions: covalent; 40 uM 11-cis retinal added to collected cell membranes, 4 °C, 24 h, dark; pH 6.5; isomer composition, no affinity
T10 construct: gene opn5; 21 residues truncated from the C-terminus; expressed in HEK293S cells; purified in DDM on Rho1D4-agarose
T10 sequence (A0A8J0QRX8 1-322 W163F): T1 sequence (A0A8J0QRX8 1-322 L208F) with W163F, F208L

Xenopus tropicalis Opn5m [12] = target: T1, Xenopus tropicalis Opn5m; assay: as above; conditions: covalent; 40 uM 11-cis retinal added to collected cell membranes, 4 °C, 24 h, dark; pH 6.5; isomer composition, no affinity

SMILES	λmax (Xenopus tropicalis Opn5m [1]) [nm]	λmax (Xenopus tropicalis Opn5m [2]) [nm]	λmax (Xenopus tropicalis Opn5m [3]) [nm]	λmax (Xenopus tropicalis Opn5m [4]) [nm]	λmax (Xenopus tropicalis Opn5m [5]) [nm]	λmax (Xenopus tropicalis Opn5m [6]) [nm]	λmax (Xenopus tropicalis Opn5m [7]) [nm]	λmax (Xenopus tropicalis Opn5m [8]) [nm]	λmax (Xenopus tropicalis Opn5m [9]) [nm]	% of bound retinal as 11-cis isomer (Xenopus tropicalis Opn5m [10]) [%]	% of bound retinal as 11-cis isomer (Xenopus tropicalis Opn5m [11]) [%]	% of bound retinal as 11-cis isomer (Xenopus tropicalis Opn5m [12]) [%]
CC1=C(/C=C/C(C)=C/C=C/C(C)=C/C=O)C(C)(C)CCC1 [all-trans retinal]	475	460	467	478	474	481	483	477	470			
CC1=C(/C=C/C(C)=C/C=C\C(C)=C\C=O)C(C)(C)CCC1 [11-cis retinal]										91	84	88
